Laboratory results: patent US20210060030A1, “METHOD FOR TREATING CANCER” (Epizyme, Inc., priority 2014, published 2021)
“Also recorded” adds a separate entry of the source.

Key:
[1] = assay type: in vivo; details: dose escalation up to 1600 mg BID
Description: Phase 1 dose escalation is being performed to determine maximum tolerated dose (MTD) safety, PK, PD, and preliminary anti-tumor activity in patients (“pts”) with B cell lymphoma or advanced solid tumors.
(§1) PK/PD relationship was analyzed. Tumor assessments were performed every 8 weeks.

[2] = system: advanced solid tumors or B cell lymphoma; test: Phase 1 tumor assessments (anti-tumor activity); assay type: in vivo, human
Description: as §1

[3] = system: H3K27Me3 positive cells in the epidermis; test: Skin biopsy H3K27Me3 immunohistochemistry and PK/PD model; assay type: in vivo, human
Description: as §1
Skin biopsies were collected predose (Cycle 1, Day 1) and predose prior to Cycle 2, Day 1 for immunohistochemistry analysis.
An inhibitory Emax PK/PD model was fit to describe this relationship.

[4] = system: ABC lymphoma cell lines; test: Combination with drugs that target the BCR/PI3K pathways in ABC lymphoma cell lines; assay type: cell-based
[5] = clinical; details: human, in vivo; for AUC(0-t): AUC0-12 hr
Description: Blood samples for PK and skin biopsies for PD analysis were collected. PD samples were stained with H3K27me3 specific antibody and percent change from baseline in H3K27Me3 positive cells was determined. PK/PD relationship was analyzed. Tumor assessments were performed every 8 weeks.
Doses administered were 100 mg BID as a suspension (n=3) or tablet (n=3) formulation and 200, 400, 800 and 1600 mg as tablet formulation.

CCN(c1cc(-c2ccc(CN3CCOCC3)cc2)cc(C(=O)NCc2c(C)cc(C)[nH]c2=O)c1C)C1CCOCC1 [EPZ-6438]
MTD [1]: has not been reached | Maximum tumor change ([2]; 100 mg dose group): −78% | Maximum tumor change ([2]; 200mg dose group): −87% | Partial responses in evaluable NHL pts ([2]; 1 transformed DLBCL, 100mg BID, and 1 PMBL, 200mg BID): 2 of 4 | maximal inhibition (Imax) of H3K27Me3 positive cells in skin ([3]; inhibitory Emax PK/PD model estimate): −44.4% | exposure associated with 50% of maximal inhibition (IC50) ([3]; inhibitory Emax PK/PD model estimate, AUC exposure): 487 ng·h/mL | exposure associated with 90% of maximal inhibition (IC90) ([3]; model predicted, AUC exposure): 4421 ng·h/mL | H3K27Me3 positive cells in skin ([3]; skin biopsies, Cycle 2 Day 1 vs predose baseline): exposure-related decrease; also recorded: consistent decrease | effect of combination with drugs that target the BCR/PI3K pathways [4]: no effect observed | AUC0-12 hr ([5]; 100 mg): 337 ng·h/mL | Tmax ([5]; 100 mg): 1.0 h | AUC(0-t) ([5]; 100 mg): 467 ng·h/mL | Tmax ([5]; 100 mg, Tmax): 0.5 h | AUC(0-t) ([5]; 200 mg): 1250 ng·h/mL | Cmax ([5]; 200 mg, Cmax): 363 ng/mL | Tmax ([5]; 200 mg, Tmax): 1 h | half-life ([5]; 200 mg, t1/2): 3.42 h | AUC(0-t) ([5]; 400 mg): 1720 ng·h/mL | Cmax ([5]; 400 mg, Cmax): 476 ng/mL | Tmax ([5]; 400 mg, Tmax): 2 h | half-life ([5]; 400 mg, t1/2): 2.88 h | AUC ([5]; 800 mg): 4550 ng·h/mL | AUC(0-t) ([5]; 800 mg): 7800 ng·h/mL | Cmax ([5]; 800 mg, Cmax): 1730 ng/mL | Tmax ([5]; 800 mg, Tmax): 2 h | half-life ([5]; 800 mg, t1/2): 3.81 h | Cmax ([5]; 1600 mg): 4125 ng/mL | AUC(0-t) ([5]; 1600 mg): 18900 ng·h/mL | Tmax ([5]; 1600 mg, Tmax): 2 h | half-life ([5]; 1600 mg, t1/2): 3.67 h | half-life ([5]; mean EPZ-6438 terminal half-life (t½)): 3 to 6 h | Tmax ([5]; po, Tmax): 1 to 2 h | half-life ([5]; po, half-life): ~4 h | half-life ([5]; terminal half-life (t½)): 3 to 6 h
